According to ChEMBL document CHEMBL1201862, “PubChem BioAssay data set” (2004):
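Five compound concentrations were applied to cells in 96-well plates for 48 hours; endpoints were derived by simple linear interpolation of the resulting dose-response curve. At the GI50, growth is halved.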 Calls of active or inactive are those of the source. Rule as the data show it: active = GI50 up to about 1.1 µM and inactive = higher.

Key:
Assay in all cases: NCI tumour cell line growth inhibition, 48 h
A549 = tested on: A549
ACHN = tested on: ACHN
EKVX = tested on: EKVX
HL-60 = tested on: HL-60
HT-29 = tested on: HT-29
LOX IMVI = tested on: LOX IMVI
M14 = tested on: M14
Malme-3M = tested on: Malme-3M
NCI-H460 = tested on: NCI-H460
OVCAR-4 = tested on: OVCAR-4
OVCAR-5 = tested on: OVCAR-5
SF-295 = tested on: SF-295
SK-OV-3 = tested on: SK-OV-3
SR = tested on: SR
TK-10 = tested on: TK-10
UACC-62 = tested on: UACC-62
UO-31 = tested on: UO-31
Hs-578T = tested on: Hs-578T
MCF7 = tested on: MCF7
MDA-N = tested on: MDA-N

| SMILES | GI50 (A549) | GI50 (ACHN) | GI50 (EKVX) | GI50 (HL-60) | GI50 (HT-29) | GI50 (LOX IMVI) | GI50 (M14) | GI50 (Malme-3M) | GI50 (NCI-H460) | GI50 (OVCAR-4) | GI50 (OVCAR-5) | GI50 (SF-295) | GI50 (SK-OV-3) | GI50 (SR) | GI50 (TK-10) | GI50 (UACC-62) | GI50 (UO-31) | GI50 (Hs-578T) | GI50 (MCF7) | GI50 (MDA-N) |
| --- | --- | --- | --- | --- | --- | --- | --- | --- | --- | --- | --- | --- | --- | --- | --- | --- | --- | --- | --- | --- |
| CC1=CP(=O)(OC(C)C)C=C(C)C1=C(Cl)Cl (stereo unspecified) | 26.4 µM (inactive) | 47.1 µM (inactive) | > 100 µM (inactive) | 34.9 µM (inactive) | 45.6 µM (inactive) | 57 µM (inactive) | 59.6 µM (inactive) | > 100 µM (inactive) | 68.2 µM (inactive) | > 100 µM (inactive) | > 100 µM (inactive) | 45.2 µM (inactive) | 17.4 µM (inactive) | 35.5 µM (inactive) | > 100 µM (inactive) | 32.6 µM (inactive) | 13.1 µM (inactive) |  |  |  |
| NC(=S)N/N=C/c1nccc2ccccc12 | 0.409 µM (active) | 0.0254 µM (active) |  | 0.393 µM (active) | 0.731 µM (active) | 0.322 µM (active) | 0.482 µM (active) | 0.0337 µM (active) | 0.415 µM (active) | 0.54 µM (active) | 0.685 µM (active) | 0.168 µM (active) | 0.594 µM (active) | 0.664 µM (active) | 4.93 µM (inactive) | 0.281 µM (active) | 0.443 µM (active) |  |  |  |
| NCCCNc1ccc2c(c1)[n+]([O-])c1ccccc1[n+]2[O-] | 31.5 µM (inactive) | 21 µM (inactive) | 37.2 µM (inactive) | 19.7 µM (inactive) | 28.6 µM (inactive) | 7.14 µM (inactive) | 13.8 µM (inactive) | 17.4 µM (inactive) | 15.7 µM (inactive) | 25 µM (inactive) | 28.4 µM (inactive) | 28.8 µM (inactive) | 14.2 µM (inactive) | 19.1 µM (inactive) | 28.4 µM (inactive) | 17.7 µM (inactive) | 35.3 µM (inactive) | 18.5 µM (inactive) | 13.9 µM (inactive) |  |
| CC(C)(C)c1cc([Si](C)(C)C)c(C#N)c([Si](C)(C)C)c1 | 65.5 µM (inactive) | 87.3 µM (inactive) | > 100 µM (inactive) | 22 µM (inactive) | 76.7 µM (inactive) | 78.5 µM (inactive) | > 100 µM (inactive) | > 100 µM (inactive) | > 100 µM (inactive) | > 100 µM (inactive) | > 100 µM (inactive) | 29.8 µM (inactive) | > 100 µM (inactive) | 34.9 µM (inactive) | > 100 µM (inactive) | 60.5 µM (inactive) | > 100 µM (inactive) |  |  |  |
| Cc1cc(O)nc(NNC(C#N)c2ccco2)n1 (stereo unspecified) | > 100 µM (inactive) | > 100 µM (inactive) |  | > 100 µM (inactive) | > 100 µM (inactive) | > 100 µM (inactive) | > 100 µM (inactive) | > 100 µM (inactive) | > 100 µM (inactive) | > 100 µM (inactive) | > 100 µM (inactive) | > 100 µM (inactive) | > 100 µM (inactive) | > 100 µM (inactive) | > 100 µM (inactive) | > 100 µM (inactive) | > 100 µM (inactive) |  |  |  |
| O=C(O)CCCc1cc2c(s1)-c1cccc3cccc-2c13 | 36.6 µM (inactive) | 22.4 µM (inactive) |  | 22.4 µM (inactive) | > 100 µM (inactive) | 21.9 µM (inactive) | 50.1 µM (inactive) | 28.9 µM (inactive) | > 100 µM (inactive) | 76.9 µM (inactive) | > 100 µM (inactive) | 50.1 µM (inactive) | 19.8 µM (inactive) | 23.7 µM (inactive) | 49 µM (inactive) | 21.3 µM (inactive) | 17 µM (inactive) |  |  |  |
| Cc1ccc(/C(=C/C=C(C#N)C#N)Sc2cc(Cl)ccc2Cl)cc1 | 9.98 µM (inactive) | 2.7 µM (inactive) | 14 µM (inactive) |  | 3.81 µM (inactive) | 1.01 µM (active) | 4.48 µM (inactive) | 16.9 µM (inactive) | 4.31 µM (inactive) | 6.31 µM (inactive) | 5.02 µM (inactive) | 3.43 µM (inactive) | 8 µM (inactive) |  | 2.92 µM (inactive) | 3.85 µM (inactive) | 8.81 µM (inactive) | 2.42 µM (inactive) | 17.5 µM (inactive) |  |
| COc1ccccc1-n1c(C)nc2ccccc2c1=O | > 100 µM (inactive) | > 100 µM (inactive) | > 100 µM (inactive) | > 100 µM (inactive) | > 100 µM (inactive) | > 100 µM (inactive) | > 100 µM (inactive) | > 100 µM (inactive) | > 100 µM (inactive) | > 100 µM (inactive) | > 100 µM (inactive) | > 100 µM (inactive) | > 100 µM (inactive) | > 100 µM (inactive) | > 100 µM (inactive) | > 100 µM (inactive) | > 100 µM (inactive) |  |  |  |
| Cc1cc(O)nc(NNC(C#N)c2cccc([N+](=O)[O-])c2)n1 (stereo unspecified) | > 100 µM (inactive) | > 100 µM (inactive) |  | > 100 µM (inactive) | > 100 µM (inactive) | > 100 µM (inactive) | > 100 µM (inactive) | > 100 µM (inactive) | > 100 µM (inactive) | > 100 µM (inactive) | > 100 µM (inactive) | > 100 µM (inactive) | > 100 µM (inactive) | 74 µM (inactive) | > 100 µM (inactive) | > 100 µM (inactive) | 73.1 µM (inactive) |  |  |  |
| Cc1ccc(/N=C/C=C(\Nc2ccc(C)cc2)c2ccc3ccccc3c2)cc1 | 2.66 µM (inactive) | 0.671 µM (active) |  | 0.34 µM (active) | 0.347 µM (active) | 0.456 µM (active) | 1.13 µM (inactive) | 0.238 µM (active) | 0.489 µM (active) | 0.65 µM (active) | 1.45 µM (inactive) | 0.497 µM (active) | 0.731 µM (active) | 0.39 µM (active) | 1.2 µM (inactive) | 0.331 µM (active) | 1.07 µM (active) | 0.753 µM (active) | 0.515 µM (active) |  |
| CC(C)(c1ccc(Oc2ccc(C#N)c(C#N)c2)cc1)c1ccc(Oc2ccc(C#N)c(C#N)c2)cc1 | > 10 µM (inactive) | > 10 µM (inactive) | > 10 µM (inactive) | > 10 µM (inactive) | > 10 µM (inactive) | > 10 µM (inactive) | > 10 µM (inactive) | > 10 µM (inactive) | > 10 µM (inactive) | > 10 µM (inactive) | > 10 µM (inactive) | > 10 µM (inactive) | > 10 µM (inactive) | > 10 µM (inactive) | > 10 µM (inactive) | > 10 µM (inactive) | 3.58 µM (inactive) |  |  |  |
| C=CC/N=C1\N=C(C)C(C(=O)OCC)S1 (stereo unspecified) | > 100 µM (inactive) | > 100 µM (inactive) | > 100 µM (inactive) | 7.16 µM (inactive) | > 100 µM (inactive) | > 100 µM (inactive) | > 100 µM (inactive) | > 100 µM (inactive) | > 100 µM (inactive) | > 100 µM (inactive) | > 100 µM (inactive) | > 100 µM (inactive) | > 100 µM (inactive) | > 100 µM (inactive) | > 100 µM (inactive) | > 100 µM (inactive) | > 100 µM (inactive) |  |  |  |
| C[Si]1(C)C(c2ccccc2)=CC2C(c3ccccc3)(c3ccccc3)OC21c1ccccc1 (stereo unspecified) | > 100 µM (inactive) | > 100 µM (inactive) | > 100 µM (inactive) | 28.7 µM (inactive) | 43 µM (inactive) | > 100 µM (inactive) | 43.8 µM (inactive) | 33.6 µM (inactive) | > 100 µM (inactive) | > 100 µM (inactive) | > 100 µM (inactive) | 66.8 µM (inactive) | > 100 µM (inactive) | 29.4 µM (inactive) | > 100 µM (inactive) | > 100 µM (inactive) | > 100 µM (inactive) |  |  |  |
| O=C1/C(=C/c2ccccc2)N=C(c2ccccc2)N1C1Nc2cc3c(cc2S1)NC(N1C(=O)/C(=C/c2ccccc2)N=C1c1ccccc1)S3 (stereo unspecified) |  | 29.5 µM (inactive) | 95.7 µM (inactive) | 3.63 µM (inactive) | 5.01 µM (inactive) | 3.74 µM (inactive) | 9.51 µM (inactive) |  | 17.9 µM (inactive) | 51.1 µM (inactive) | 64 µM (inactive) | > 100 µM (inactive) | > 100 µM (inactive) | 5.28 µM (inactive) | 30.5 µM (inactive) |  | 47.8 µM (inactive) |  | 22.3 µM (inactive) | 8.61 µM (inactive) |
| CC/C(CC(=O)CCC(=O)Nc1ccccc1[N+](=O)[O-])=N/NC(=O)C[n+]1ccccc1 | > 100 µM (inactive) | > 100 µM (inactive) | > 100 µM (inactive) | > 100 µM (inactive) | > 100 µM (inactive) | > 100 µM (inactive) | > 100 µM (inactive) | > 100 µM (inactive) | > 100 µM (inactive) | > 100 µM (inactive) | > 100 µM (inactive) | > 100 µM (inactive) | > 100 µM (inactive) | > 100 µM (inactive) | > 100 µM (inactive) | > 100 µM (inactive) | > 100 µM (inactive) |  |  |  |
| CC1CC/C(=C\c2ccc(Cl)cc2)c2nc(N)c(C#N)c(-c3ccc(Cl)cc3)c21 (stereo unspecified) | 34.8 µM (inactive) | 42.2 µM (inactive) | 80.7 µM (inactive) | 3.07 µM (inactive) | 30.7 µM (inactive) | > 100 µM (inactive) | 57.8 µM (inactive) | 13.4 µM (inactive) |  | > 100 µM (inactive) | > 100 µM (inactive) | 44.1 µM (inactive) | > 100 µM (inactive) | < 0.01 µM (active) | 45.4 µM (inactive) | 20.5 µM (inactive) | 27.7 µM (inactive) |  | 22.8 µM (inactive) | 88.1 µM (inactive) |
